According to patent publication US12667626B2, “Compositions and methods relating to erythrocytes with adhered particles” (PRESIDENT AND FELLOWS OF HARVARD COLLEGE, priority 2019, dated 2026):

Assays:
[1] = tested on: B16F10-Luc melanoma lung metastasis; assay: Efficacy in early-stage B16F10-Luc lung metastasis model; type: in vivo, mice
Experimental: Efficacy studies on in vivo experimental lung metastasis model. Experimental lung metastasis model was established by intravenous injection of 1×10^5 B16F10-Luc cells in to the tail vein of female C57BL/6 mice. Efficacy for the treatment groups was evaluated in an early stage and late stage metastatic models. Mice were randomized based on the bioluminescence intensity in the lungs one day before the first injection of therapies. A control (Saline) group and three treatment groups (DOX-NPs, RBC-NPs, free DOX) at a dose of 5.2 mg/kg were evaluated for their efficacy (n=7 for all groups, unless otherwise specified).
For the early-stage metastatic model, treatments were given starting the day after the inoculation. Four injections were given over six days, i.e. day 1, 3, 5 and 7 after inoculation. On days 6, 8, 10, 12, 18, 23, 31 after inoculation, the mice were imaged using in vivo imaging (Perkin Elmer IVIS Spectrum™, MA, USA). Briefly, mice were injected intraperitoneally with 150 μL of 30 mg/mL Xenolight™-D-luciferin in saline. […] The average radiance (bioluminescence intensity) was evaluated using the software Living System®. The animals were further monitored for their survival.

[2] = Chemokine gradient assay (CXCL10 in lung and blood); type: in vivo, mice; conditions: 5× higher dose, free form
Experimental: The chemokine gradient assay was conducted on the early-stage lung metastasis model as follows. To evaluate chemokine gradient restoration capability of the therapy, early-stage spontaneous lung metastasis model was established as described in the previous context. One saline and three treatment groups (5× free CXCL10 chemokine, ImmunoBait with anti-ICAM-1, and erythrocyte hitchhiked ImmunoBait with anti-ICAM-1) were included into the study. Treatments were given starting one week after surgery. Two injection sets were given on day 7 and day 10 after surgery. (n=4-5 for each time point for each group). Mice were sacrificed at 20 mins and 6 h after the second injection, blood was collected by cardiac puncture and lungs were excised. Chemokine content in lungs and blood were quantified as described above.
The chemokine gradient assay was conducted on the early-stage lung metastasis model as follows. To evaluate chemokine gradient restoration capability of the therapy, early-stage spontaneous lung metastasis model was established as described in the previous context. One saline and three treatment groups (5× free CXCL10 chemokine containing 12.5 μg CXCL10, ImmunoBait with anti-ICAM-1 containing 2.5 μg CXCL10, and erythrocyte hitchhiked ImmunoBait with anti-ICAM-1 containing 2.5 μg CXCL10) were included into the study. […] Chemokine content in lungs and blood were quantified as described above.

Row | Compound | lung metastasis burden inhibited ([1]; day 16, early-stage model) [%] | median survival time ([1]; early-stage model, control 29 days) [days] | body weight change ([1]; treatment period, 5.2 mg/kg) | chemokine gradient established [2]
1 | COc1cccc2c1C(=O)c1c(O)c3c(c(O)c1C2=O)C[C@@](O)(C(=O)CO)C[C@@H]3O[C@H]1C[C@H](N)[C@H](O)[C@H](C)O1 [free drug, doxorubicin] | 94.2 | 32 | sharp decline in the body weight | 
2 | CXCL10 [free chemokine] |  |  |  | weak chemokine gradient
